Data reported in US12577232B2, “N-heterocycle substituted tryptamine derivatives and methods of using” (ENVERIC B[…] INC., priority 2024, dated 2026).

Columns and labels:
5-HT1A receptor = target: T1, 5-HT1A receptor (Homo sapiens, UniProt P08908); assay: 5-HT1A receptor radioligand competition assay (SPA, [3H]8-hydroxy-DPAT); assay type: binding; conditions: 0.5 nM hot 8-hydroxy-DPAT; membranes containing 5-HT1A
T1 construct: purchased Perkin Elmer 6110501400UA
T1 sequence (P08908 1-422): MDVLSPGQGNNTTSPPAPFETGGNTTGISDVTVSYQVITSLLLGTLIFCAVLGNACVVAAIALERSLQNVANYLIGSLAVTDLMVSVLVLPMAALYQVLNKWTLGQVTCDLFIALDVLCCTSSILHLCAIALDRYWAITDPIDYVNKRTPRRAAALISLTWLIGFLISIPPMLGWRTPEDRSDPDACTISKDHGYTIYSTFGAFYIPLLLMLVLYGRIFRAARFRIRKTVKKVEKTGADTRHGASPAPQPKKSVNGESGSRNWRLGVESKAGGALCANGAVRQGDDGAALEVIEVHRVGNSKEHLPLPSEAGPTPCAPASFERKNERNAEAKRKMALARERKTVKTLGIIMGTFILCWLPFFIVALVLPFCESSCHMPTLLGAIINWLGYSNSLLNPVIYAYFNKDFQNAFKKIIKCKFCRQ
Method: 5-HT1A receptor. […] After incubation, the samples were read on a MicroBeta 2 Microplate Counter (perkinelmer.com). Non-specific binding was carried out in the presence of 100 μM of metergoline (M3668-500MG, Sigma-Aldrich). Equilibrium binding constant for 8-hydroxy-DPAT (KD) was determined from a saturation binding curve using one-site saturation binding analysis from GraphPad PRISM software (Version 9.2.0). Test compound was dissolved to 100 mM in dimethylsulfoxide (DMSO), and dilutions were carried out in assay buffer. […] Ki values were calculated from the competition displacement data using the competitive binding analysis from GraphPad PRISM software. […] Conversely, blank preparations lacking any drug (simply termed ‘DMSO’ samples) were used as negative controls, in addition to those containing tryptophan which is not known to bind the 5-HT1A receptor.

[1] = system: human model (NT2) neurons; assay: Neuroplastogenicity (neurite outgrowth) assay in NT2 neurons; assay type: cell-based; design: key: a positive (+) designation indicating strong evidence of enhanced neurite outgrowth in drug-treated NT2 cells compared to vehicle-treated cells; a negative (−) designation indicating weak or no evidence of enhanced neurite outgrowth in drug-treated NT2 cells compared to vehicle-treated cells; conditions: 1 or 10 μM, 48 h, visual inspection vs vehicle (0.1% DMSO)
Source text: Classic psychedelics such as psilocybin and DMT show potential to treat anxiety and depression, and it has been theorized that such long-term improvements arise because these drugs rapidly and lastingly stimulate neuroplasticity (Calder and Hasler, 2023, Neuropsychopharmacol. 48:104-112). Thus, it was of interest to determine the potential of new compounds as neuroplastogens. Herein, we assess the capacity of various compounds to enhance neurite outgrowth in human model (NT2) neurons.
Human NT2/D1 precursor cells were purchased from the American Type Culture Collection (ATCC, Manassas, VA, USA). Neuronal differentiation was carried out as previously described (Roloff et al., 2015, PloS ONE 10:e0118536) with minor modifications. Firstly, NT2/D1 cells were seeded in T-25 suspension culture flasks (REF #690190, Greiner bio-one, Germany). Each flask contains a minimum of 5×10^6 cells in 10 ml of DMEM/F12 supplemented with 10% fetal bovine serum (FBS), 1% penicillin and streptomycin and 10 μM retinoic acid (RA) medium to start neuronal differentiation. The cells were cultured for 3 days in free floating medium. At the end of the incubation cells were trypsinized and collected by centrifugation, mechanically dispersed, and counted. Counted cells were seeded along Poly D-Lysine (PDL) coated cover slips (12 mm; diameter round, Fisher Scientific; GG-12-PDL) containing a minimum of 0.1×10^5 cells in culture medium without RA. The next day culture medium was replaced with RA medium containing 2% of FBS. These cells cultured for 5 days and two days later, RA medium was changed.
After cells had successfully attached and established along coverslips, the RA medium was replaced with new medium containing 2% FBS and one of the following: (1) test compound (1 or 10 μM), (2) RhoK (ROCK) inhibitor Y-27632 (1 μM) as a positive control (Dihydrochloride; Sigma-Aldrich) (Roloff et al., 2015, PloS ONE 10:e0118536); (3) DMT (1 or 10 μM) as a positive control (Calder and Hasler, 2023, Neuropsychopharmacol. 48:104-112), or (4) vehicle (0.1% DMSO) as a negative control. These cells were incubated for 48 hours under standard conditions (370C, 5% CO2). The cells cultured along coverslips were collected after 48 hours of treatment. The coverslips washed with calcium chloride and magnesium chloride-free phosphate buffered saline (PBS) pH 7.4 (Gibco, #70011-044) and fixed in paraformaldehyde (PFA) 4% in PBS (#J61899, thermoscientific) for 15 min at room temperature (RT) and washed three times with 0.01% of Triton-X100 in PBS (PBST) to remove remaining PFA and to permeabilize the cells. Non-specific binding sites were blocked with 5% of Bovine Serum Albumin (BSA) solution (#9048-46-8, Millipore) in PBST for 60 minutes at RT. Rabbit monoclonal antibody β-III-tubulin (1:5,000, ab52623, Abcam) was applied overnight (O/N) at 4° C. Next day cells are washed three times in PBST, neurons were incubated with secondary antibody Donkey anti-rabbit IgG(H+L) Alexa Fluor™ Plus488 (1:5000 #A32790, Invitrogen) for 1 hour at RT. These coverslips were mounted on Gluoromount-G™, with 4′6-diamidino-2′henylindoldihydrochloride (DAPI) (#E141818, Invitrogen). The immunofluorescence images were analyzed using an Olympus VS110 slide scanner microscope.
B-III-Tubulin immunofluorescence was quantified using ImageJ. Briefly, Corrected Total Cell Fluorescence (CTCF) was acquired for at least ˜8-10 representative cells, where CTCF=Integrated Density−[Area of selected cell*Mean Fluorescence of background]. The CTCF values, referred to herein as ‘signal intensities’, were used to calculate overall means±SD for each treatment. One-Way ANOVA was used to compare treatments. Further, the mean of each treatment was compared with the mean of the control treatment (RA-differentiated cells treated with vehicle, 0.1% DMSO) using Dunnett's multiple comparison procedure. […]

## CN(C)CCc1c[nH]c2cc(N3CCC3)ccc12 [Compound (XII)]
5-HT1A receptor
  Ki: 20.8 µM
[1]
  Evidence of neurite outgrowth: Yes (+) or No (−): +

## CN(C)CCc1c[nH]c2cc(F)cc(N3CCOCC3)c12 [Compound (XV)]
5-HT1A receptor
  Ki: 1.83 µM
[1]
  Evidence of neurite outgrowth: Yes (+) or No (−): +

## CN(C)CCc1c[nH]c2cc(N3CCCC3)cc(F)c12 [Compound (XVIII)]
5-HT1A receptor
  Ki: 18.1 µM
[1]
  Evidence of neurite outgrowth: Yes (+) or No (−): +

## CC(C)N(C)CCc1c[nH]c2cc(N3CCOCC3)c(F)cc12 [Compound (XVII)]
[1]
  Evidence of neurite outgrowth: Yes (+) or No (−): +
